GI50 and TGI data for eight compounds are collected here from PubChem BioAssay (NCI).

Among the test systems are UACC-62 melanoma; SK-OV-3 ovarian; A549 NSCLC; HOP-62 NSCLC; SNB-75 CNS; RXF 393 renal; T-47D breast; SF-295 CNS; MDA-MB-435; HCT-116 colon.
Common to all, as to assay: NCI-60 cell line screen, 48 h

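Growth conditions: 96-well plates. Treatment: test compound, 48 hours, 5 concentrations. Analysis: linear interpolation between bracketing concentrations; unreached endpoints set to highest concentration. At the GI50, growth is halved. TGI marks complete inhibition of growth.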 Some results are limits rather than exact numbers.

With `Cc1noc2c1-c1ccccc1C(c1ccc(Cl)cc1)=N[C@H]2CC(N)=O`, the GI50 in the experiment with UACC-62 melanoma is 0.462 µM; with SK-OV-3 ovarian it was 1.54 µM; in the experiment with A549 NSCLC, 18.3 µM; in the experiment with HOP-62 NSCLC, 2.6 µM; in the experiment on SNB-75 CNS, 0.134 µM; in the experiment with RXF 393 renal, 13 µM. For the same compound, the GI50 with T-47D breast is 3.48 µM; in the experiment with SF-295 CNS it was 4.71 µM; in the experiment on MDA-MB-435, 2.78 µM; with HCT-116 colon it was 5.34 µM. The TGI in the experiment with UACC-62 melanoma is greater than 58.9 µM; with SK-OV-3 ovarian it was greater than 65.7 µM; in the experiment on A549 NSCLC it was greater than 100 µM; in the experiment with HOP-62 NSCLC, greater than 100 µM; in the experiment with SNB-75 CNS, greater than 100 µM; with RXF 393 renal it was 72.7 µM. For the same compound, the TGI in the experiment on T-47D breast, in the experiment with SF-295 CNS, with MDA-MB-435 and in the experiment with HCT-116 colon was greater than 100 µM in each case.

Turning to `COc1cc(/C=C/C(=O)C(C(=O)/C=C/c2ccc(OC(=O)CCNC34CC5CC(CC(C5)C3)C4)c(OC)c2)C(=O)CCNC23CC4CC(CC(C4)C2)C3)ccc1OC(=O)CCNC12CC3CC(CC(C3)C1)C2` (stereo not drawn), the GI50 in the experiment with UACC-62 melanoma was 3.37 µM; with SK-OV-3 ovarian it was 5.44 µM; in the experiment with A549 NSCLC, 2.86 µM; in the experiment on HOP-62 NSCLC, 9.12 µM; in the experiment on SNB-75 CNS it was 4.86 µM; in the experiment on RXF 393 renal it was 1.96 µM. Further, the GI50 with T-47D breast is 3.69 µM; with SF-295 CNS it was 17.2 µM; with MDA-MB-435, 2.88 µM; in the experiment on HCT-116 colon, 2.94 µM. The TGI in the experiment with UACC-62 melanoma is 13.3 µM; in the experiment on SK-OV-3 ovarian, 36.3 µM; with A549 NSCLC it was 10.1 µM; in the experiment with HOP-62 NSCLC, greater than 100 µM; in the experiment on SNB-75 CNS it was 33.3 µM; in the experiment with RXF 393 renal, 5.17 µM. Also, the TGI in the experiment on T-47D breast was found to be 28.9 µM; with SF-295 CNS, 34.4 µM; in the experiment with MDA-MB-435, 35.3 µM; in the experiment on HCT-116 colon, 10.7 µM.

As for `CS(=O)(=O)CS(=O)(=O)OCCCl`, the TGI with UACC-62 melanoma is 268 µM; in the experiment with SK-OV-3 ovarian it was 423 µM; in the experiment on A549 NSCLC, 1640 µM; in the experiment with HOP-62 NSCLC it was 151 µM; in the experiment with SNB-75 CNS, 256 µM; with RXF 393 renal it was 611 µM. The TGI with T-47D breast amounted to 1530 µM; with SF-295 CNS it was 554 µM; in the experiment on MDA-MB-435, 2330 µM; in the experiment on HCT-116 colon, 661 µM.

Consider `Cc1c2c(C(N)=O)nccc2c(C)c2c1c1ccccc1n2Cc1ccccc1`, for which the TGI in the experiment with UACC-62 melanoma was greater than 100 µM; with SK-OV-3 ovarian, 47.6 µM; in the experiment on A549 NSCLC, 35.4 µM; in the experiment with HOP-62 NSCLC, 19.3 µM; with SNB-75 CNS, 39.9 µM; with RXF 393 renal, 31.9 µM. Also, the TGI in the experiment on T-47D breast was 79.5 µM; in the experiment with SF-295 CNS, 31.2 µM; in the experiment with MDA-MB-435, greater than 100 µM; in the experiment on HCT-116 colon, 29 µM.

Turning to `O=C(CCN1CCOCC1)Nc1cccc(-n2cc(-c3ccncc3)c(-c3ccc(Cl)c(O)c3)n2)c1`, the GI50 in the experiment with UACC-62 melanoma is 1.67 µM; in the experiment with SK-OV-3 ovarian, 3.51 µM; in the experiment on A549 NSCLC, 3.75 µM; in the experiment on HOP-62 NSCLC it was 2.23 µM; in the experiment with SNB-75 CNS, 0.825 µM; in the experiment on RXF 393 renal, 1.39 µM. Further, the GI50 is 1.74 µM with T-47D breast, 1.31 µM with SF-295 CNS, 0.313 µM in the experiment with MDA-MB-435 and 3.04 µM in the experiment on HCT-116 colon. The TGI with UACC-62 melanoma is 13.6 µM; in the experiment with SK-OV-3 ovarian it was 14.4 µM; in the experiment on A549 NSCLC it was 16.1 µM; with HOP-62 NSCLC, 13.5 µM; in the experiment on SNB-75 CNS it was 3.3 µM; in the experiment with RXF 393 renal, 4.66 µM. In addition, the TGI worked out at 9.75 µM in the experiment with T-47D breast, 3.38 µM in the experiment with SF-295 CNS, 1.29 µM in the experiment with MDA-MB-435 and 12 µM in the experiment with HCT-116 colon.

Consider `O=C(NC1CCCCC1)c1ccc(Nc2ncnc3c2cnn3-c2ccccc2)cc1`, for which the GI50 with UACC-62 melanoma was 17.5 µM; in the experiment on SK-OV-3 ovarian, 2.95 µM; with A549 NSCLC, 4.38 µM; with HOP-62 NSCLC, 2.62 µM; in the experiment on SNB-75 CNS, 1.71 µM; with RXF 393 renal, 2.43 µM. The GI50 is 20.2 µM with T-47D breast, 2.98 µM with SF-295 CNS, 67.8 µM with MDA-MB-435 and 4.01 µM in the experiment on HCT-116 colon. Also, the TGI in the experiment on UACC-62 melanoma was greater than 100 µM; in the experiment on SK-OV-3 ovarian, 8.7 µM; in the experiment on A549 NSCLC it was 51.3 µM; in the experiment on HOP-62 NSCLC, 8.77 µM; with SNB-75 CNS, 5.4 µM; in the experiment on RXF 393 renal it was 9.33 µM. The TGI in the experiment with T-47D breast was greater than 100 µM; in the experiment with SF-295 CNS, 13.3 µM; in the experiment with MDA-MB-435, greater than 100 µM; in the experiment on HCT-116 colon it was greater than 100 µM.

`c1ccc2c(c1)c1ccccc1c1ccccc21`: the GI50 with UACC-62 melanoma, in the experiment on SK-OV-3 ovarian, with A549 NSCLC, in the experiment with HOP-62 NSCLC, in the experiment on SNB-75 CNS and with RXF 393 renal was greater than 100 µM throughout. The GI50 in the experiment on T-47D breast, with MDA-MB-435 and with HCT-116 colon was greater than 100 µM throughout. The TGI in the experiment with UACC-62 melanoma, with SK-OV-3 ovarian, in the experiment with A549 NSCLC, in the experiment with HOP-62 NSCLC, in the experiment with SNB-75 CNS and in the experiment on RXF 393 renal was greater than 100 µM in each case. For the same compound, the TGI in the experiment on T-47D breast, in the experiment with MDA-MB-435 and with HCT-116 colon was greater than 100 µM throughout.

`COc1cc(OC)c2sc(-c3ccc(-n4cncc4-c4cc(OC)c(OC)c(OC)c4)cc3)nc2c1`: the GI50 with UACC-62 melanoma was 4.14 µM; with SK-OV-3 ovarian, greater than 100 µM; with A549 NSCLC, 6.16 µM; with HOP-62 NSCLC, 75.9 µM; in the experiment with SNB-75 CNS, 6.47 µM; in the experiment with RXF 393 renal, 2.8 µM. Further, the GI50 in the experiment on T-47D breast is 3.35 µM; in the experiment on SF-295 CNS, 4.42 µM; in the experiment on MDA-MB-435, 3.41 µM; in the experiment on HCT-116 colon, 3.92 µM. Moreover, the TGI in the experiment with UACC-62 melanoma, in the experiment on SK-OV-3 ovarian, in the experiment on A549 NSCLC, in the experiment on HOP-62 NSCLC, in the experiment on SNB-75 CNS and in the experiment on RXF 393 renal was greater than 100 µM each time. Besides, the TGI in the experiment with T-47D breast, in the experiment on SF-295 CNS, with MDA-MB-435 and in the experiment on HCT-116 colon was greater than 100 µM each time.
